“Also recorded” adds a separate entry of the source. Where no end group is shown, it is not given here. HA = HA epitope tag
What was measured:
[1] = tested on: MBP:FUS (full-length FUS droplets) / Kapβ2; experiment: Turbidity assay of FUS droplet formation (OD 395 nm); format: biochemical; details: equimolar poly-dipeptide and Kapβ2 (8 μM)
[2] = tested on: FUS droplets (MBP:FUS/MBP:FUS:EGFP) / Kapβ2; experiment: Fluorescence microscopy of FUS droplets; format: biochemical; details: 16 μM Kapβ2, 16 μM Kapβ2–M9M complex, 50 μM PR20, repeated three times
[3] = tested on: Kapβ2; experiment: Solution NMR (1H-13C methyl) of labelled Kapβ2; format: binding
Procedure: The Kapβ2 expression plasmid was transformed into BL21(DE3) cells. The protein samples with ^1H,^13C-labeled methyl groups in deuterium background were prepared as described in a previous study. The cells were grown in medium with ^15NH4Cl (2 gL^−1, CIL) and ^2H7-glucose (2 g L^−1, CIL) in 99.9% ^2H2O (Isotec). The precursors for methyl groups of Ile, Val, and Leu, α-ketobutyric acid (50 mg L^−1) and α-ketoisovaleric acid (80 mg L^−1), and [^13CH3] methionine (50 mg L^−1) were added to the culture 1 h before the addition of IPTG. Protein expression was induced by the addition of 0.5 mM IPTG at OD600 ~ 0.6, followed by ~16 h of incubation at 25 °C. […] Protein concentration was determined spectrophotometrically at 280 nm using a corresponding extinction coefficient.
The isotopically labeled Kapβ2 was prepared in the NMR buffer containing 20 mM ^2H-Tris pH 7.4, 150 mM NaCl, 2 mM MgCl2, 2 mM DTT, and 2% glycerol, concentrated to 20 μM. […] Perturbation of the side chain methyl resonances were each monitored using ^1H-^13C heteronuclear multiple quantum coherence. […] The perturbations of the resonances were evaluated based on chemical shift change or intensity change. […]
In order to investigate the interaction between Kapβ2 and PR poly-dipeptide by NMR, the NMR spectra of the isotopically labeled Kapβ2 in the absence and presence of the synthetic peptide of PR20:HA were measured. […]

[4] = tested on: Kapβ2 / MBP:FUS-NLS complex; experiment: Competitive pull-down: release of MBP:FUS-NLS from GST:Kapβ2; format: binding; details: MBP:FUS-NLS (501–526) : GST:Kapβ2 1:1, PR20:HA competitor; repeated twice
Text: Unbound proteins were washed three times with the buffer.

With “PR20: twenty repeats of proline:arginine with an HA epitope tag at the C terminus, synthesized by SCRUM, Inc. (PRPRPRPRPRPRPRPRPRPRPRPRPRPRPRPRPRPRPRPR-{HA})” the “Inhibition of the ability of Kapβ2 to melt FUS droplets (turbidity)” value [1] was “inhibited the ability of Kapβ2”, the “Effect on FUS droplets (microscopy)” value [2] was “not melted in the presence of PR20” and the “Perturbation of Kapβ2 methyl resonances” value ([3]; 20 μM labelled Kapβ2, 20 °C, 20 mM Tris pH 7.4, 150 mM NaCl, 600/800 MHz) was “induced significant perturbations to several resonances of Kapβ2; also recorded: several resonances show significant perturbations induced only by PR20”. The “Binding site on Kapβ2 by NMR” value ([3]; comparison of perturbations by PR20, M9M and FUS-ΔNLS) was “partially occupy the NLS-binding site of Kapβ2” and the “Release of MBP:FUS-NLS from Kapβ2” value [4] was “release of MBP:FUS-NLS from Kapβ2”.

Source: publication PMC8421406, “C9orf72-derived arginine-rich poly-dipeptides impede phase modifiers” (Nature Communications, 2021)
